The test system of one series is male CD1 mice. In words: Predictive sedation-hypnosis test in mice (motor activity, crossings). The format is in vivo. Particulars: single equimolecular intraperitoneal dose, crossings over 30 min after dosing (first 5 min discarded) versus control. As for the experimental part:
• In vivo determination of predictive sedative-hypnotic action.
The in vivo effects of these compounds were assessed by a predictive sedation-hypnosis test in mice (D. J. Sanger et al., Eur. J. Pharmacol., 313, 35-42, 1996; and G. Griebel et al., Psychopharmacology, 146, 205-213, 1999). Groups of 5-8 male CD1 mice, weighing 22-26 g at the time of test, were used. The test compounds were administered in single equimolecular intraperitoneal doses, suspended in 0.25% agar with one drop of Tween in a volume of 10 ml/kg. Control animals received the vehicle alone. Using an Actisystem DAS16 (Panlab, S. L., Spain) the crossings (number of counts) were recorded for each mouse at 5-min intervals during a period of 30 minutes after dosing. The inhibition percentage of crossings of treated animals versus control animals (the first 5 min were discarded) was calculated.

Another series concerns the target α2-GABAA receptor (Rattus norvegicus, UniProt P18508+P23576). In words: Ligand-binding assay, radiolabeled flumazenil competition, rat spinal cord membranes. As to conditions: for inhibition at 10 µM: read-out: % Inhibition (10^−5 M), affinity for α2-GABAA receptor; for inhibition at 0.1 µM: read-out: % Inhibition (10^−7 M), affinity for α2-GABAA receptor. On the procedure: Determination of the affinity of test compounds for α1- and α2-GABAA receptor.
Male Sprague-Dawley rats weighing 200-250 g at the time of experiment were used. After decapitation of the animal, the cerebellum (tissue that mostly contains α1-GABAA receptor) and spinal cord (tissue that mostly contains α2-GABAA receptor) were removed. The membranes were prepared according to the method by J. Lameh et al. (Prog. Neuro-Psychopharmacol. Biol. Psychiatry, 24, 979-991, 2000). Once the tissues weighed, they were suspended in 50 mM Tris.HCl (pH 7.7), 1:40 (v/v), homogenized and then centrifuged at 20000 g for 10 min at 7° C. The resulting pellet was resuspended under the same conditions and centrifuged again. The pellet was finally resuspended on a minimum volume and kept at −80° C. overnight. On the next day, the process was repeated until the final pellet was resuspended at a ratio of 1:10 (v/v).
Affinity was determined by competitive tests using radiolabeled flumazenil as ligand. The tests were performed according to the methods described by S. Arbilla et al. (Eur. J. Pharmacol., 130, 257-263, 1986); and Y. Wu et al. (Eur. J. Pharmacol., 278, 125-132, 1995). The membranes containing the study receptors, flumazenil (radiolabeling at a final concentration of 1 nM) and ascending concentrations of test compounds (in a total volume of 500 μl in […] [ph 7.4] Tris.HCl buffer) were incubated. Simultaneously, the membranes were only incubated with the radiolabeled flumazenil (total binding, 100%) and in the presence of an elevated concentration of unradiolabeled flumazenil (non-specific binding, % estimation of radiolabeled ligand). The reactions started on adding the radiolabeled ligand followed by incubation for 60 minutes at 0° C. At the end of the incubation period, the tubes were filtered using a Brandel Mod. M-48R harvester and then washed three times with cold test buffer. The harvester was fitted with a GF/B filter that retained the membranes containing the receptors and the radiolabeled ligand which had been bound to the receptors. Then the filters were removed and left till dry. Once dried, the filters were cut, placed in vials with scintillation liquid and left under stirring overnight. The next day the filters were counted using a Packard Mod. Tricarb scintillation counter.
X: amount of bound ligand for every concentration of compound.
T: total binding, maximum amount bound to the radiolabeled ligand.
N: non-specific binding, amount of radiolabeled ligand bound in a non-specific way irrespective of the receptor used.
Every concentrations of compound were tested in duplicate and their mean values were used to determine the experimental values of % specific binding versus the concentration of compound. […] Inhibition constants (Ki) were calculated from the IC50 values according to Cheng-Prusoff's formula (Y. Cheng y W. H. Prusoff, Biochem. Pharmacol., 22(23), 3099-3108, 1973).

The structures appear in SMILES notation.

Consider `CN(c1cccc(-c2ccnc3c(C#N)cnn23)c1)S(C)(=O)=O` [Example 2, N-[3-(3-cyano-pyrazolo[1,5-a]pyrimidin-7-yl)-phenyl]-N-methyl-methanesulfonamide], for which the melting point was 193 to 195 °C. For the same compound, in the series on male CD1 mice, the “% Motor Activity Inhibition” value is recorded as 71.39%.

Compound `CN(c1cccc(-c2ccnc3c(C(=O)c4cccs4)cnn23)c1)S(C)(=O)=O` [Example 3, N-methyl-N-{3-[3-(thiophene-2-carbonyl)-pyrazolo[1,5-a]pyrimidin-7-yl]-phenyl}-methanesulfonamide] yielded a melting point of 169 to 170 °C. Moreover, the “% Motor Activity Inhibition” value in the series with male CD1 mice is listed as 93.58%.

Turning to `CCN(c1cccc(-c2ccnc3c(C(=O)c4ccc(F)cc4)cnn23)c1)S(C)(=O)=O` [Example 52, N-ethyl-N-{3-[3-(fluorobenzene-4-carbonyl)-pyrazolo[1,5-a]pyrimidin-7-yl]-phenyl}-methanesulfonamide], on α2-GABAA receptor, the inhibition at 10 µM was 61.2% and the inhibition at 0.1 µM turned out to be 0%. The “% Motor Activity Inhibition” value with male CD1 mice is on record as 92.83%.

As for `CN(c1cccc(-c2ccnc3c(C(=O)c4cccs4)cnn23)c1)S(=O)(=O)c1cccc(C#N)c1` [Example 83, N-methyl-N-{3-[3-(thiophene-2-carbonyl)-pyrazolo[1,5-a]pyrimidin-7-yl]-phenyl}-3-cyanobenzene-sulfonamide], on α2-GABAA receptor, the inhibition at 10 µM came out at 94.4% and the inhibition at 0.1 µM was found to be 39.1%. In the series on male CD1 mice, the “% Motor Activity Inhibition” value was 53.38%.

As for `CC(C)S(=O)(=O)N(C)c1cccc(-c2ccnc3c(C(=O)c4cccs4)cnn23)c1` [Example 23, N-methyl-N-{3-[3-(thiophene-2-carbonyl)-pyrazolo[1,5-a]pyrimidin-7-yl]-phenyl}-2-propane-sulfonamide], at α2-GABAA receptor, the inhibition at 10 µM is 93.8% and the inhibition at 0.1 µM is 45.5%. The “% Motor Activity Inhibition” value in the series with male CD1 mice is recorded as 94.57%.

As to `C#CCN(c1cccc(-c2ccnc3c(C#N)cnn23)c1)S(C)(=O)=O` [Example 27, N-[3-(3-cyano-pyrazolo[1,5-a]pyrimidin-7-yl)-phenyl]-N-2-propynyl-methanesulfonamide], on α2-GABAA receptor, the inhibition at 10 µM turned out to be 85.2% and the inhibition at 0.1 µM came to 2.9%. Besides, in the series with male CD1 mice, the “% Motor Activity Inhibition” value is recorded as 93.12%.

Broadly, the melting point is the temperature, or range, at which the solid turns liquid. A word on the inhibition: it is how much of the control response was suppressed.

These data come from patent publication US7947688B2, “N-[3-(3-substituted-pyrazolo[1,5-a]pyrimidin-7-yl)phenyl]-sulfonamides, and compositions, and methods related thereto” (Ferrer Internacional, S.A., priority 2003, dated 2011).
